What was measured:
[1] = Comparative intrinsic dissolution testing (Wood apparatus); assay type: physicochemical; settings: 400 mg sample compressed at 1.5 metric tons for 1 minute, 900 mL 0.01 N HCl buffer, 75 rpm
Experimental: Intrinsic dissolution rate (IDR) measurements were performed using a Wood apparatus. Samples were prepared by compressing 400 mg sample at 1.5 metric tons for 1 minute. A dissolution medium consisting of 900 mL 0.01 N HCl buffer, and rotation speed of 75 rpm, was used for each experiment.

[2] = cited from earlier work; for Hygroscopicity: as reported in the prior art or the CHMP report
[3] = CHMP Assessment Report for KISQALI; anhydrous form; cited from earlier work

Row | Structure (SMILES) | Intrinsic Dissolution Rate [1] [mg min^−1 cm^−2] | Form conversion upon exposure to high humidity levels ([2]; WO 2012/064805 A1) | Hygroscopicity [2] | BCS Class [3] | Solubility (BCS assessment) [3]
1 | CN(C)C(=O)c1cc2cnc(Nc3ccc(N4CCNCC4)cn3)nc2n1C1CCCC1.O=C(O)CCC(=O)O [Ribociclib succinate non-hydrate form] | 1.9520 | converts to the hydrate form | hygroscopic | – | –
2 | CN(C)C(=O)c1cc2cnc(Nc3ccc(N4CCNCC4)cn3)nc2n1C1CCCC1 [Ribociclib succinate, 7-cyclopentyl-N,N-dimethyl-2-{[5-(piperazin-1-yl)pyridin-2-yl]amino}-7H-pyrrolo[2,3-d]pyrimidine-6-carboxamide] | – | – | exhibits hygroscopicity | Class IV | low solubility
